The values that follow come from patent publication US8673938B2, “Chemical compounds” (priority 2006, dated 2014).

A word on the IC50: it is the midpoint of a concentration-inhibition curve. High values mean weaker potency in that assay, low ones greater potency in that assay. The inhibition is the change of the read-out against control, counted positive when it falls.

In assay [1] the target is T1, human 11βHSD1 enzyme (Homo sapiens (Human), UniProt P28845). The settings on record: for % inhibition of human 11-βHSD: test concentration of 30 μM of compound.
T1 sequence (P28845 whole entry): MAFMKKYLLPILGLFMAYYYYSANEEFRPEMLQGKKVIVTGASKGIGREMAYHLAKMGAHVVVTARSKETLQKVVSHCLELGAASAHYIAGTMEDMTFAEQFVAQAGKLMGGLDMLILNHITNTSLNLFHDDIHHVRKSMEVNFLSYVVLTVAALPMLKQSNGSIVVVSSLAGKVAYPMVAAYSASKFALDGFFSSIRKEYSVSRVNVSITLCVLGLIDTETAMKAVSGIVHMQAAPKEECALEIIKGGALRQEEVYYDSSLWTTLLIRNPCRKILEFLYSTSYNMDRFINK
Description: (§1) The evaluation of compounds described herein was carried out using a baculovirus expressed N terminal 6-His tagged full length human 11βHSD1 enzyme(*1). […] Inhibitors of 11βHSD1 reduce the conversion of cortisone to cortisol, which is identified by an increase in signal, in the above assay.
(§2) Compounds to be tested were dissolved in dimethyl sulphoxide (DMSO) to 10 mM and diluted further in assay buffer containing 1% DMSO to 10 fold the final assay concentration. Diluted compounds were then plated into black 384 well plates (Matrix, Hudson N.H., USA).
(§3) The assay plates were incubated for 25 minutes at 37° C. after which time the reaction was stopped by the addition of 10 μl of 0.5 mM glycerrhetinic acid plus conjugated cortisol (XL665 or D2). 10 μl of anti-cortisol Cryptate was then added and the plates sealed and incubated for 6 hours at room temperature.
Assay [2] addresses T1, human 11βHSD1 enzyme. Briefly: biochemical. Conditions: read-out: % inhibition of human 11-βHSD.
Description: as §1, §2, §3

At human 11βHSD1 enzyme [1], `CCCSc1nc(N2CCC[C@H](CC(=O)O)C2)ccc1C(=O)NC1CCCCC1` [Example 1, 2-[(3R)-1-[5-(Cyclohexylcarbamoyl)-6-propylsulfanyl-pyridin-2-yl]-3-piperidyl]acetic acid] returned an IC50 of 0.095 µM. Besides, the inhibition at 30 µM on human 11βHSD1 enzyme [2] stood at 87%.

`CCCSc1nc(N2CCC[C@@H](CC(=O)O)C2)ccc1C(=O)NC1CCCCC1` [Example 7, 2-[(3S)-1-[5-(cyclohexylcarbamoyl)-6-propylsulfanyl-pyridin-2-yl]-3-piperidyl]acetic acid] came in with an IC50 on human 11βHSD1 enzyme [1] of 0.007 µM. Further, at human 11βHSD1 enzyme [2], the inhibition at 30 µM was determined as 87%.

Regarding `O=C(O)C[C@@H]1CCCN(c2ccc(C(=O)NC3CCCCC3)c(C3CC3)n2)C1` [compound 165], the “% inhibition of human 11-βHSD” value on human 11βHSD1 enzyme [1] stood at 95%.

For the molecule `O=C(O)C[C@@H]1CCCN(c2ccc(C(=O)NC3C4CC5CC(C4)CC3C5)c(C3CC3)n2)C1` (stereo partly shown) [compound 166], the “% inhibition of human 11-βHSD” value on human 11βHSD1 enzyme [1] worked out at 95%.

As for `O=C(O)C[C@@H]1CCCN(c2ccc(C(=O)N[C@H]3C4CC5CC3C[C@@](O)(C5)C4)c(C3CC3)n2)C1` [compound 167], the “% inhibition of human 11-βHSD” value at human 11βHSD1 enzyme [1] worked out at 95%.
